# From patent publication US10898473B2, “Combinations to treat cancer” (EVOL SCIENCE LLC, priority 2016, dated 2021)
# Experiments:
# NCI-H2122 cells = experiment: Colony formation assay; assay type: cell-based
# Experimental: (§1) For colony formation assays, 400 cells per well were seeded into 24-well plates on day 0. Cells were treated with DMSO or gemcitabine at various doses on day 1 for 24 hours. Gemcitabine was washed out on day 2, vemurafenib, dabrafenib, and methotrexate was added. On day 4, drugs added on day 2 was washed out. Cells were allowed to grow for a subsequent 7 days before being fixed (10% methanol+10% acetic acid) and stained with crystal violet (0.4% in 20% ethanol) for quantitation as previously described (Bhattacharjee et al., 2014).
# BxPC3M1 cells = experiment: Colony formation assay; assay type: cell-based
# Experimental: as §1
# SK-MEL-28 cells [1] = experiment: Colony formation assay; assay type: cell-based
# Experimental: as §1
# SK-MEL-28VR1 cells [2] = experiment: Colony formation assay; assay type: cell-based
# Experimental: as §1
# [3] = tested on: pancreatic cancer patient-derived and ATCC established cell lines; experiment: 3D-spheroidal growth assay (CTG3D cell viability); assay type: cell-based; details: gemcitabine day 2, washed out, B-raf inhibitor day 3, viability day 5; FIG. 15
# Experimental: FIG. 15 illustrates gemcitabine sensitized pancreatic cancer patient-derived and ATCC established cell lines to vemurafenib or dabrafenib in 3D-spheroidal growth assays: 20,000 cells plated (Corning 4515 spheroid plates) on day 0, Gemcitabine added on day 2 (all spheroids at least 500 μm in diameter), gemcitabine washed out and B-raf inhibit was added on day 3, CTG3D cell viability assays on day 5 (n=2).
# ATCC established cell lines to vemurafenib or dabrafenib in 3D-spheroidal growth assays. 20,000 cells were plated to grow in a 3D-spheroidal growth assays. (Corning 4515 spheroid plates). Two days later when all spheroids were at least 500 μm in diameter, gemcitabine was added 2 days after plating. Gemcitabine was washed out the following day and the B-raf inhibitor was added on day 3 (3 days post-plating). CTG3D cell viability assays were performed 5-days post plating (i.e, on day 5, n=2). […] This was a surprising and unexpected effect that these cells could be killed with this combination.
# [4] = tested on: PHGDH in SK-MEL-28VR1 cells; experiment: Western blot of PHGDH protein expression; assay type: cell-based; details: following vemurafenib treatment; FIG. 5B
# Experimental: Cells were harvested, washed in PBS and lysed in NP40 lysis buffer (1% NP40/PBS/10% glycerol) with protease and phosphatase inhibitors. Protein concentrations were determined with Total-Protein-Assay-kit (ITSI Biosciences; K-0014-20) and then SDS sample buffer was added to the lysates. 50 ug of boiled lysates was separated by SDS-PAGE and then transferred onto Immobilon P membranes (Millipore; IPVH00010).
# [5] = tested on: BxPC3M1, BxPC3, Panc1, and MiaPaca2; experiment: Cell proliferation assay; assay type: cell-based; details: vemurafenib 10 μM; all 4 cell lines (WT BRAF)
# Experimental: FIGS. 9A-9H illustrate vemurafenib induced cell proliferation and serine synthesis in pancreatic cancer cell lines. FIG. 9A: Cell proliferation assay of BxPC3 cells treated with vemurafenib (10 μM). 100000 cells plated on day 0. FIG. 9B: Cell proliferation assay of BxPC3M1 cells treated with vemurafenib (10 μM). 100000 cells plated on day 0. FIG. 9C: Cell proliferation assay of Panc1 cells treated with vemurafenib (10 μM). 100000 cells plated on day 0. FIG. 9D: Cell proliferation assay of MiaPaca2 cells treated with vemurafenib (10 μM). 100000 cells plated on day 0. FIG. 9E: Mass spectrometry: PHGDH protein expression in pancreatic cancer cells treated with DMSO or vemurafenib (10 μM) (n=3). FIG. 9F: Mass spectrometry: PSAT1 protein expression in pancreatic cancer cells treated with DMSO or vemurafenib (10 μM) (n=3). FIG. 9G: Mass spectrometry: PSPH protein expression in pancreatic cancer cells treated with DMSO or vemurafenib (10 μM) (n=3). FIG. 9H: Mass spectrometry: SARS protein expression in pancreatic cancer cells treated with DMSO or vemurafenib (10 μM) (n=3).
# Next, we tested the effect of vemurafenib treatment on pancreatic cancer cell proliferation. All 4 of the cell lines (BxPC3M1, BxPC3, Panc1, and MiaPaca2) tested express WT BRAF. […] As expected, PHGDH, PSAT1, PSPH, and SARS protein abundance increased in all 4 cell lines tested (FIGS. 9E, 9F, 9G, and 9H). […]
# [6] = tested on: BxPC3M1, BxPC3, Panc1, and MiaPaca2; assay type: cell-based, Homo sapiens; details: vemurafenib 10 μM vs DMSO; all 4 cell lines
# [7] = tested on: SK-MEL-28VR1 vs SK-MEL-28 cells; details: protein abundance with vemurafenib treatment, SK-MEL-28VR1 compared to parental SK-MEL-28
# SK-MEL-28VR1 cells [8] = experiment: Mass spectrometry protein abundance
# Experimental: (§2) 5 μL of sample were loaded onto a C18 trap column (PepMap100; 300-μm i.d.×5 mm, 5-μm particle size, 100 Å; Thermo Fisher Scientific) at a flow rate of 10 μL min^−1. […] The runs were analyzed using Progenesis-QI for Proteomics (Nonlinear dynamics). The chromatograms were aligned and the MS/MS data was extracted for peptide identification using Mascot (Matrix Science, London, UK; version 2.5.1). Mascot was set up to search the cRAP database, the custom database including the QMC peptide sequence and SwissProt database (selected for Homo sapiens) assuming the digestion enzyme trypsin. Mascot was searched with a fragment ion mass tolerance of 0.06 Da and a parent ion tolerance of 15 PPM. Deamidated of asparagine and glutamine, oxidation of methionine, acetyl of lysine, propionyl of lysine and carbamidomethylation of cysteine were specified in Mascot as variable modifications. The peptides identified using a FDR<1% were extracted and imported back into Progenesis for assignment of the peaks. Only proteins with at least 2 unique peptides and a Mascot score of 20 were used for further analysis. The peptide and protein quantification used a synthetic control peptide for normalization across the samples.
# (§3) All proteomic trend plots were constructed using the Evol Science Software suite (ESSv1.0). […]
# SK-MEL-28 cells [9] = experiment: Mass spectrometry protein abundance
# Experimental: as §2, §3
structure (smiles),measurement,setting,value
"CC(C)(C)c1nc(-c2cccc(NS(=O)(=O)c3c(F)cccc3F)c2F)c(-c2ccnc(N)n2)s1 [dabrafenib, Dabrafenib]",sensitization to gemcitabine,"NCI-H2122 cells; dabrafenib 1 μM + variable doses of gemcitabine, FIG. 11B",sensitized
same,sensitization to gemcitabine,"BxPC3M1 cells; dabrafenib 1 μM + variable doses of gemcitabine, FIG. 11A",sensitized
Nc1ccn([C@@H]2O[C@H](CO)[C@@H](O)C2(F)F)c(=O)n1 [gemcitabine],sensitization over single vemurafenib treatments,"SK-MEL-28 cells [1]; gemcitabine 50 nM + variable doses of vemurafenib, FIG. 7A",did not sensitize
same,sensitization to vemurafenib,"SK-MEL-28VR1 cells [2]; gemcitabine 50 nM + variable doses of vemurafenib, FIG. 7B",significantly sensitized
same,sensitization to dabrafenib,"SK-MEL-28VR1 cells [2]; gemcitabine 50 nm + variable doses of dabrafenib, FIG. 11C",sensitized
same,effect of gemcitabine pre-treatment followed by B-raf inhibitors on the cells,[3],leads to cell death
same,sensitization to vemurafenib or dabrafenib,[3],sensitized
CN(Cc1cnc2nc(N)nc(N)c2n1)c1ccc(C(=O)N[C@@H](CCC(=O)O)C(=O)O)cc1 [methotrexate],cell death compared to gemcitabine+vemurafenib without methotrexate,"NCI-H2122 cells; methotrexate (75 nM) + gemcitabine + vemurafenib (1 μM), FIG. 10B",increased cell death
same,killing by methotrexate/vemurafenib treatments,"SK-MEL-28 cells [1]; methotrexate 75 nM + differential doses of vemurafenib, FIG. 6C",no significant killing
same,killing of cells following vemurafenib treatment,"SK-MEL-28VR1 cells [2]; methotrexate 75 nM + differential doses of vemurafenib, FIG. 6D",significantly enhanced
same,cell death alongside the gemcitabine/vemurafenib combination,"SK-MEL-28VR1 cells [2]; methotrexate (75 nM) + gemcitabine (50 nM) + vemurafenib, FIG. 7F",significantly enhanced
same,cell death compared to gemcitabine+vemurafenib without methotrexate,"BxPC3M1 cells; methotrexate (75 nM) + gemcitabine + vemurafenib (1 μM), FIG. 10A",increased cell death
"CCCS(=O)(=O)Nc1ccc(F)c(C(=O)c2c[nH]c3ncc(-c4ccc(Cl)cc4)cc23)c1F [vemurafenib, Vemurafenib]",PHGDH levels,[4],increased
same,sensitization to gemcitabine,"NCI-H2122 cells; vemurafenib 1 μM, FIG. 8C",sensitized
same,cell death,"SK-MEL-28VR1 cells [2]; vemurafenib 2.5 μM and 5 μM, serine depletion (not with complete media), FIG. 6E",> 50%
same,sensitization to gemcitabine,"BxPC3M1 cells; variable gemcitabine doses + vemurafenib 1 μM, FIG. 8A",significantly sensitized
same,cell death,"BxPC3M1 cells; vemurafenib 5 μM, serine depleted media (not with complete media), FIG. 10C",> 50%
same,cell proliferation,[5],increased proliferation
same,"PHGDH, PSAT1, PSPH, and SARS protein abundance",[6],increased
same,"Fold differential, ASNS",[7],8 fold
same,"Fold differential, CYP51A1",[7],8 fold
same,"Fold differential, DUS2",[7],7 fold
same,"Fold differential, FAM129B",[7],9 fold
same,"Fold differential, KRT19",[7],5 fold
same,"Fold differential, LARS2",[7],6 fold
same,"Fold differential, MPHOSPH6",[7],9 fold
same,"Fold differential, MRPL13",[7],2 fold
same,"Fold differential, PDLIM7",[7],9 fold
same,"Fold differential, PHGDH",[7],2 fold
same,"Fold differential, PPP1R7",[7],8 fold
same,"Fold differential, PSAT1",[7],8 fold
same,"Fold differential, PSPH",[7],5 fold
same,"Fold differential, RUVBL1",[7],3 fold
same,"Fold differential, S100A11",[7],8 fold
same,"Fold differential, SARS",[7],6 fold
same,"Fold differential, SARS2",[7],4 fold
same,"Fold differential, SBDS",[7],10 fold
same,"Fold differential, SPATA20",[7],12 fold
same,"Fold differential, TXNDC17",[7],2 fold
same,"PHGDH, PSAT1, PSPH, SARS and SARS2 abundance","SK-MEL-28VR1 cells [8]; cells exposed to vemurafenib vs vehicle, data not shown",equal or higher abundances
same,Cytoplasmic FAM129B abundance increase,"SK-MEL-28VR1 cells [8]; vemurafenib treatment compared to vehicle treatment, FIG. 5A",~6 fold
same,FAM129B abundance,"SK-MEL-28 cells [9]; in response to vemurafenib treatments, parental cells",decreased
same,"PHGDH, PSAT1, PSPH, SARS and SARS2 abundance","SK-MEL-28 cells [9]; parental cells exposed to vemurafenib vs vehicle, data not shown",opposite trend
